Measured values: EPA's CvTdb concentration-time database

How the values were obtained:
Rat [1] = experiment: concentration in plasma after dosing; conditions: 1.5 h; dosed: Potassium Perfluorobutane Sulfonate; 4 mg/kg; iv; Male; F344
Rat [2] = experiment: concentration in plasma after dosing; conditions: dosed: Potassium Perfluorobutane Sulfonate, 4 mg/kg, iv, Male, F344
Rat [3] = experiment: concentration in plasma after dosing; conditions: dosed: Potassium Perfluorobutane Sulfonate, 4 mg/kg, oral, Male, Harlan Sprague Dawley
Rat [4] = experiment: concentration in plasma after dosing; conditions: dosed: Potassium Perfluorobutane Sulfonate, 4 mg/kg, oral, Male, Harlan Sprague Dawley; remark: listed apart in the source
Rat [5] = experiment: concentration in plasma after dosing; conditions: 0.5 h; dosed: Potassium Perfluorobutane Sulfonate; 4 mg/kg; iv; Male; F344
Rat [6] = experiment: concentration in plasma after dosing; conditions: dosed: Potassium Perfluorobutane Sulfonate, 4 mg/kg, iv, Male, F344; remark: listed apart in the source
Rat [7] = experiment: concentration in plasma after dosing; conditions: dosed: Potassium Perfluorobutane Sulfonate, 4 mg/kg, oral, Male, Harlan Sprague Dawley; remark: listed apart in the source
Rat [8] = experiment: concentration in plasma after dosing; conditions: dosed: 2-Hydroxy-4-methoxybenzophenone, 500 mg/kg, oral, Male, F344
Rat [9] = experiment: concentration in plasma after dosing; conditions: dosed: 2-Hydroxy-4-methoxybenzophenone, 500 mg/kg, oral, Male, F344; remark: listed apart in the source
Mouse [10] = experiment: concentration in plasma after dosing; conditions: 2 h; dosed: 2-Hydroxy-4-methoxybenzophenone; 50 mg/kg; iv; Male; B6C3F1
Rat [11] = experiment: concentration in plasma after dosing; conditions: dosed: 2-Hydroxy-4-methoxybenzophenone, 100 mg/kg, oral, Male, F344
Rat [12] = experiment: concentration in plasma after dosing; conditions: 6 h; dosed: 2-Hydroxy-4-methoxybenzophenone; 500 mg/kg; oral; Male; F344
Mouse [13] = experiment: concentration in plasma after dosing; conditions: 10 min; dosed: 2-Hydroxy-4-methoxybenzophenone; 500 mg/kg; oral; Female; B6C3F1
Rat [14] = experiment: concentration in plasma after dosing; conditions: dosed: 2-Hydroxy-4-methoxybenzophenone, 8 mg/kg, iv, Male, F344
Rat [15] = experiment: concentration in kidney after dosing; conditions: 6 h; dosed: Fluorotelomer alcohol 8+2; 80 mg/kg; oral; Female; Harlan Sprague Dawley
Rat [16] = experiment: concentration in liver after dosing; conditions: 0.5 h; dosed: Fluorotelomer alcohol 8+2; 80 mg/kg; oral; Female; Harlan Sprague Dawley
Rat [17] = experiment: concentration in kidney after dosing; conditions: 24 h; dosed: Perfluorooctanoic acid; 80 mg/kg; oral; Female; Harlan Sprague Dawley
Rat [18] = experiment: concentration in brain after dosing; conditions: 6 h; dosed: Perfluorooctanoic acid; 80 mg/kg; oral; Female; Harlan Sprague Dawley
Rat [19] = experiment: concentration in plasma after dosing; conditions: dosed: 678-39-7, 12 mg/kg, iv, Male, F344
Rat [20] = experiment: concentration in liver after dosing; conditions: 12 h; dosed: Fluorotelomer alcohol 8+2; 24 mg/kg; oral; Male; Harlan Sprague Dawley
Rat [21] = experiment: concentration in liver after dosing; conditions: 3 h; dosed: Perfluorooctanoic acid; 12 mg/kg; oral; Male; Harlan Sprague Dawley
Rat [22] = experiment: concentration in brain after dosing; conditions: 192 h; dosed: Perfluorooctanoic acid; 12 mg/kg; oral; Male; Harlan Sprague Dawley
Rat [23] = experiment: concentration in kidney after dosing; conditions: 1 h; dosed: Fluorotelomer alcohol 8+2; 24 mg/kg; oral; Male; Harlan Sprague Dawley
Rat [24] = experiment: concentration in liver after dosing; conditions: 3 h; dosed: Perfluorooctanoic acid; 12 mg/kg; oral; Male; Harlan Sprague Dawley; remark: listed apart in the source
Rat [25] = experiment: concentration in kidney after dosing; conditions: 3 h; dosed: Perfluorooctanoic acid; 12 mg/kg; oral; Male; Harlan Sprague Dawley
Rat [26] = experiment: concentration in liver after dosing; conditions: 6 h; dosed: Fluorotelomer alcohol 8+2; 24 mg/kg; oral; Male; Harlan Sprague Dawley
Rat [27] = experiment: concentration in kidney after dosing; conditions: 1200 h; dosed: Perfluorooctanoic acid; 12 mg/kg; oral; Male; Harlan Sprague Dawley
Rat [28] = experiment: concentration in liver after dosing; conditions: 1 h; dosed: Fluorotelomer alcohol 8+2; 80 mg/kg; oral; Female; Harlan Sprague Dawley
Rat [29] = experiment: concentration in liver after dosing; conditions: 12 h; dosed: Fluorotelomer alcohol 8+2; 80 mg/kg; oral; Female; Harlan Sprague Dawley
Rat [30] = experiment: concentration in plasma after dosing; conditions: dosed: 678-39-7, 40 mg/kg, iv, Male, F344
Rat [31] = experiment: concentration in kidney after dosing; conditions: 12 h; dosed: Perfluorooctanoic acid; 12 mg/kg; oral; Male; Harlan Sprague Dawley
Rat [32] = experiment: concentration in plasma after dosing; conditions: dosed: Nitrite, 20 mg/kg, iv, Male, F344
Rat [33] = experiment: concentration in plasma after dosing; conditions: dosed: Nitrite, 80 mg/kg, oral, Female, F344
Rat [34] = experiment: concentration in plasma after dosing; conditions: dosed: Nitrite, 40 mg/kg, oral, Female, F344
Rat [35] = experiment: concentration in plasma after dosing; conditions: dosed: Nitrite, 80 mg/kg, oral, Female, F344; remark: listed apart in the source
Rat [36] = experiment: concentration in plasma after dosing; conditions: 0.5 h; dosed: Nitrite; 40 mg/kg; oral; Male; F344

O=S(=O)([O-])C(F)(F)C(F)(F)C(F)(F)C(F)(F)F.[K+] [Potassium Perfluorobutane Sulfonate]
Conditions	concentration in plasma [ng/mL]
Rat [1]	1740
Rat [5]	12500

Conditions	concentration in plasma [ng/mL]
Rat [2], 0.25 h	27200
Rat [2], 6 h	4170
Rat [3], 0.75 h	14200
Rat [3], 12 h	2550
Rat [4], 1 h	13800
Rat [4], 24 h	245
Rat [6], 3 h	12800
Rat [6], 5 min	32200
Rat [7], 0.25 h	3220
Rat [7], 6 h	9970

COc1ccc(C(=O)c2ccccc2)c(O)c1 [2-Hydroxy-4-methoxybenzophenone]
Conditions	concentration in plasma [ng/mL]
Rat [8], 10 h	80.4
Rat [8], 10 min	113
Rat [9], 2.5 min	6.4
Rat [9], 4 h	578
Rat [11], 0.25 h	88.9
Rat [11], 4 h	26.1
Rat [14], 10 h	6.58
Rat [14], 10 min	3950

Conditions	concentration in plasma [ng/mL]
Mouse [10]	267
Mouse [13]	535
Rat [12]	293

O=C(O)C(F)(F)C(F)(F)C(F)(F)C(F)(F)C(F)(F)C(F)(F)C(F)(F)F [Perfluorooctanoic acid]
Conditions	concentration in brain [ng/g]	concentration in kidney [ng/g]	concentration in liver [ng/g]
Rat [15]	–	1730	–
Rat [16]	–	–	579
Rat [17]	–	12300	–
Rat [18]	3230	–	–
Rat [20]	–	–	1350
Rat [21]	–	–	50700
Rat [22]	543	–	–
Rat [23]	–	175	–
Rat [24]	–	–	41100
Rat [25]	–	23700	–
Rat [26]	–	–	1350
Rat [27]	–	695	–
Rat [28]	–	–	601
Rat [29]	–	–	498
Rat [31]	–	26900	–

concentration in plasma [ng/mL]
Conditions	0.5 h	0.75 h	3 h	5 min	12 h
Rat [19]	–	332	–	–	524
Rat [30]	234000	–	2800	172	25600

O=N[O-] [Nitrite]
Conditions	concentration in plasma [ng/mL]
Rat [32], 0.75 h	2300
Rat [32], 2 min	21300
Rat [33], 1 h	19000
Rat [33], 2 h	8500
Rat [34], 1 h	8300
Rat [34], 2 h	3600
Rat [35], 0.5 h	5200
Rat [35], 4 h	2300

Conditions	concentration in plasma [ng/mL]
Rat [36]	1900
